Measured values as given in patent US11358931B2, “Selective androgen receptor modulators (SARMs) and uses thereof” (priority 2007, dated 2022).

Key:
[1] = In vitro genotoxicity assays
Text: Compounds disclosed herein can be evaluated for efficacy and toxicity using known methods. For example, the toxicology of a particular compound, or of a subset of the compounds, sharing certain chemical moieties, may be established by determining in vitro toxicity towards a cell line, such as a bacterial or mammalian, including human, cell line. The results of such studies are often predictive of toxicity in animals, such as mammals, or more specifically, humans. Exemplary assays include bacterial reverse mutation assays (e.g., see Ames et al., Mutation Research 31: 347-364 (1975); Green et al., Mutation Research 38: 3-32 (1976); and Maron et al., Mutation Research 113: 173-215 (1983), cytological methods for detecting chemical mutagens (Evans, Chemical Mutagens, Principles and Methods for their Detection, Vol. 4 (Plenum Press, New York, N.Y. (1976))), chromosomal aberration assays (Galloway et al., Mutation Research 312(3): 241-261 (1994)), genotoxicity assays (Federal Register 61: 18198-18202 (1996) and Federal Register 62: 16026-16030 (1997)) and cytogenetic assays (Preston et al., Mutation Research 87: 143-188 (1981)).

[2] = Toxicokinetics in cynomolgus monkeys (14-day oral study); assay type: in vivo, cynomolgus monkey
Procedure: A study was performed to determine any potential toxicity and the toxicokinetic profile of Compound 102 when administered orally (via nasal gavage) to cynomolgus monkeys for at least 14 days. The cynomolgus monkey was chosen for this study as it is a non-rodent species that is commonly used for non-clinical toxicity evaluations. Use of the monkey model maximized the likelihood of identifying toxicological responses that may occur in humans. Ten experimentally naïve cynomolgus monkeys (5 male and 5 female) from about 2.5 to 3 years of age and weighing between about 2.3 to about 2.8 kg at Day −1 of the study were assigned to dose groups as shown in Table 6 below.
All animals were dosed via nasal gavage once daily for 14 consecutive days. The first day of dosing was designated Day 1 for all animals. The animals were evaluated for clinical signs (evaluation of mortality and morbidity, twice daily), cage side observations and food consumption (once daily), body weight (Days 1, 8 and 14), physical examination (Day −5 and post dosing following the 13/24 hour toxicokinetic collection on Day 14), ophthalmic examination (prestudy and owing the Day 13/24 hour toxicokinetic collection on Day 14), and clinical pathology parameters (serum chemistry, hematology and coagulation on Days −3 and 14), urine samples were collected during necropsy (Day 15) for urinalysis. Blood samples were collected for toxicokinetic analysis at 1, 2, 4, 8, 12 and 24 hours post dose on Days 1 and 13.

[3] = Metabolic stability in liver microsomes; assay type: in vitro ADME; details: rat liver microsomes, 37° C., pH 7.4, average of 2 experiments; read-out: half-life for degradation
Procedure: Liver microsomes are subcellular fractions that contain drug-metabolizing enzymes, such as cytochrome P450, flavin monooxygenases and UDP glucuronyl transferases. […] Rat liver microsomes are a commonly used animal model for determination of drug metabolism (e.g., see Shayeganpour et al., Drug Metab Dispos 34 (1): 43-50 (2006)).
The metabolism of Compound 102 was evaluated in rat liver microsomes. The metabolism was initiated by adding 25 μL of cofactor (100 mM of glucose 6-phosphate, 20 mM of NADP, […], and 63 mM of UDPGA) to wells containing 50 μL of 5 mg/mL of rat liver microsomes and 425 μL of 0.59 mM of Compound 102 made in 100 mM phosphate buffer (pH 7.4) at 37° C. At 0, 5, 10 and 20 minutes, a 60 μL aliquot of the sample was withdrawn. The unmetabolized test substance remaining in the sample was determined using HPLC and mass spectrometry and the half-life for degradation of the compound was calculated in minutes using curve fitting.

[4] = Toxicokinetics in Sprague Dawley rats (14-day oral study); assay type: in vivo, rat
Procedure: (§1) A Sprague Dawley Rat model was used to study oral toxicity and toxicokinetics. Animals were assigned to groups by a stratified randomization scheme designed to achieve similar group mean body weights and the groups were randomly assigned to a dosing to provide control of bias.
(§2) All animals were dosed via oral gavage once daily for 14 days. The animals were evaluated for changes in clinical signs (mortality/morbidity observations, twice daily), cage side observations (general appearance and behavior), food consumption (quantitatively measured by weighing), body weights, clinical pathology indices including serum chemistry, hematology, coagulation and urinalysis, and other parameters. Blood samples were collected for toxicokinetics analysis from Groups 6-10 at various time points on Days 1 and 14 (Group 6 4 hours post dose; Groups 7-10 at 1, 4 and 12 hours or 2, 8 and 24 hours). The animals were fasted for at least 8 hours prior to blood collections for serum chemistry and urine collection. Serum chemistry parameters tested included alanine aminotransferase, total protein, aspartate aminotransferase, albumin, alkaline phosphatase, globulin, gamma-glutamyl-transferase, albumin/globulin ratio, lactate dehydrogenase, glucose, total bilirubin, cholesterol, urea nitrogen, triglycerides, creatinine, sodium, calcium, potassium, phosphorus and chloride. Hematology parameters analyzed included red blood cell count, reticulocyte count, hemoglobin concentration, red blood cell distribution width, mean corpuscular volume, mean platelet volume, mean corpuscular hemoglobin concentration, white blood cell count and differentials and mean corpuscular hemoglobin. Urinalysis parameters included color/character, ketones, specific gravity, bilirubin, pH, occult blood, protein, glucose and microscopics. Main study animals were euthanized on Day 15. At termination, a full necropsy was conducted and all tissues were collected, preserved, processes and examined microscopically from Groups 1 and 5, and target organs (liver and kidney) from Groups 2-4, by a veterinary pathologist certified by the American College of Veterinary Pathologists.

[5] = 14-day oral toxicity study in Sprague Dawley rats; assay type: in vivo, rat; details: Sprague-Dawley, rat, in vivo; SD rats, oral gavage once daily for 14 days; read-out: No-observed-adverse-effect level (NOAEL)
Procedure: as §1, §2
(§3) Control vehicle included Peg-400 (Sigma P-3265), Tween 80 (Sigma P-8074) and PVP-K30 (polyvinyl pyrrolidone or povidone K-30, Spectrum PN P1454) at a ratio of 90:5:5, w/w/w. Appropriate amounts of Compound 102 were added to the control vehicle to produce homogeneous dosing solutions/suspensions.

Sprague-Dawley rats = assay: 14-day oral toxicity study in Sprague Dawley rats; assay type: in vivo, rat
Procedure: as §1, §2, §3

Q: With `N#Cc1ccc(N2CCC[C@@H]2[C@@H](O)C(F)(F)F)cc1C(F)(F)F` [Compound 102, R,R-4-(2-(1-Hydroxyl-2,2,2-trifluoroethyl)-pyrrolidinyl)-2-trifluoromethyl-benzonitrile] as the compound, how does the genotoxicity [1] read?
A: The genotoxicity was “negative”.

Q: And the “sex difference in toxicokinetic parameters” value ([2]; Day 1 and Day 13)?
A: The value was “no noticeable sex difference”.

Q: And the “effect of repeat administration on systemic exposure” value ([2]; Day 13 relative to Day 1)?
A: Its value is “decreased on Day 13”.

Q: And the “systemic exposure versus dose” value ([2]; both sexes)?
A: The value was “increased with increasing dose up to 450 mg/kg”.

Q: What about the half-life at 0.5 mM [3] of the same compound?
A: Its half-life at 0.5 mM is 44.5 min.

Q: And the “sex difference of systemic exposure” value ([4]; Day 1)?
A: The value was “higher systemic exposure in females across all dose levels”.

Q: And the “systemic exposure at 700 mg/kg/day” value ([4]; Day 1, 700 mg/kg/day)?
A: The value was “not increased, indicating that absorption was saturated”.

Q: What about the “systemic exposure versus dose” value ([4]; Day 1, male and female rats) of the same compound?
A: Its value is “increased with increasing dose up to 300 mg/kg/day”.

Q: What about the “effect of repeat administration on systemic exposure” value ([4]; Day 14 vs Day 1, more pronounced in high dose groups) of the same compound?
A: Its value is “decreased systemic exposure”.

Q: And the NOAEL at 14 days [5]?
A: Its NOAEL at 14 days is 700 mg/kg/day.

Q: What about the “morbidity / early death” value (Sprague-Dawley rats; 10, 100, 300 or 700 mg/kg/day, 14 days) of the same compound?
A: Its value is “not associated with test article-related morbidity or early death”.

Q: What about the “macroscopic or microscopic changes (postmortem)” value (Sprague-Dawley rats; 10-700 mg/kg/day) of the same compound?
A: Its value is “no macroscopic or microscopic changes”.

Q: And the urinalysis parameters (Sprague-Dawley rats; 10-700 mg/kg/day)?
A: Its urinalysis parameters is “no alterations”.

Q: And the liver weight (Sprague-Dawley rats; both sexes, not correlated with hepatocellular size or liver pathology)?
A: The liver weight was “Dose-dependent liver weight increases”.

Q: What about the food consumption (Sprague-Dawley rats; female animals, all dose levels) of the same compound?
A: The food consumption was “statistically significant increase in food consumption”.

Q: And the “alkaline phosphatase values and phosphorus concentrations” value (Sprague-Dawley rats; female rats dosed at ≥10 mg/kg/day)?
A: Its value is “minimally higher”.

Q: What about the “reticulocyte counts and red cell distribution width” value (Sprague-Dawley rats; female rats ≥10 mg/kg/day) of the same compound?
A: The value was “higher reticulocyte counts and red cell distribution width”.

Q: And the platelet counts (Sprague-Dawley rats; females ≥100 mg/kg/day, males 10 and 700 mg/kg/day)?
A: Its platelet counts is “increased with statistical significance”.

Q: And the prothrombin time (Sprague-Dawley rats; male and female animals, 300 and 700 mg/kg/day)?
A: Its prothrombin time is “minimal prolongation”.

Q: And the body weight gain (Sprague-Dawley rats; male and female animals, versus control)?
A: Its body weight gain is “increased weight gain compared to control animals”.

Q: And the triglyceride concentrations (Sprague-Dawley rats; male rats ≥100 mg/kg/day, female rats ≥300 mg/kg/day)?
A: Its triglyceride concentrations is “minimally lower”.

Q: What about the potassium levels (Sprague-Dawley rats; male rats ≥300 mg/kg/day, female rats ≥100 mg/kg/day) of the same compound?
A: Its potassium levels is “minimally higher”.

Q: What about the clinical observations (Sprague-Dawley rats; particularly female animals at ≥100 mg/kg/day) of the same compound?
A: Its clinical observations is “increased incidence and frequency in rough hair coat and nasal discharge”.
